# Source: US5864033A, “Adenosine kinase inhibitors” (priority 1995, dated 1999)
# Where “and” joins values, the source holds several entries; their conditions need not be identical. Equal values may be shown once. Entries after “also recorded” stand apart in the source; their conditions may differ.
# Key:
# [1] = test system: pentylenetetrazol (PTZ)-induced seizures in mice; assay: PTZ-induced seizures; format: in vivo, male Swiss Webster mice; conditions: for attenuation of chemical and electroshock induced seizures: experimental animal models; for oral anticonvulsant activity: 45 minutes prior to PTZ; for Percent Seizure: 45 min prior to PTZ, N = 7; for Seizure Score: mean ± standard deviation
# [2] = test system: mice; conditions: cited from earlier work
# [3] = test system: neutrophil adherence to endothelial cells; assay: Inhibition of neutrophil adherence to endothelial cells; format: cell-based, human; conditions: for inhibition of neutrophil adhesion to endothelial cells: fMLP-stimulated human neutrophils, 2 hours, 37° C.; for reversal of inhibition of neutrophil adhesion by adenosine deaminase: with adenosine deaminase 0.125 U/ml
# Procedure: The ability of an adenosine kinase inhibitor to affect neutrophil adherence to fibroblasts and endothelial cells was evaluated in a cell culture model.
# These incubations were carried out in the presence of fMLP-stimulated human neutrophils isolated from whole blood (1.25×10^6 /ml) with or without adenosine deaminase (0.125 U/ml). At the end of the incubation, the medium was removed and the monolayers of fibroblasts or endothelial cells and adherent neutrophils were fixed by addition of formaldehyde (3.7%) and, after washing to remove non-adherent neutrophils, adherent neutrophils were stained with Weigart's hematoxylin and counted under a light microscope.
# [4] = test system: anesthetized male dogs; assay: Preclinical model of stable angina (repeated pacing-induced ischemia); format: in vivo, dog; conditions: intravenous infusion
# Procedure: GP-1-515, was evaluated for its ability to prevent cumulative cardiac dysfunction associated with repeated episodes of pacing-induced ischemia.
# Anesthetized male dogs were instrumented to measure regional myocardial wall thickening during right atrial pacing (Young & Mullane, Am. J. Physio., 1991, 261:1570-1577). Animals were subjected to six repeated episodes of pacing. A continuous IV infusion of 1 μg/kg/min of GP-1-515 or saline (control) was administered post pace #1.
# [5] = test system: isolated guinea pig ileum longitudinal muscle; assay: Inhibition of contraction in isolated ileum; conditions: for inhibition of contraction in the isolated ileum: electrically stimulated; for reversal of inhibition of contraction: with 8-sulfophenyltheophylline (8SPT) or adenosine deaminase (ADA)
# Procedure: The ability of adenosine kinase inhibition to affect stimulated contraction of muscle strips from the isolated ileum has been investigated.
# Parallel platinum electrodes were used to deliver electrical current at 1 minute intervals at a voltage adequate to induce contraction of 90% of maximal. The adenosine kinase inhibitors, GP-1-515 or GP-1-547 were added to the tissue baths at different concentrations, with or without either the adenosine receptor antagonist, 8-sulphophenyltheophylline (8SPT) or adenosine deaminase (ADA), and the effects on contraction monitored.
# [6] = test system: isolated guinea pig hearts; assay: Improved functional recovery in isolated hearts (low flow ischemia/reperfusion); conditions: for Preischemic Flow: Conc. 0.3 (M) as printed; for Functional Recovery: Conc. 0.3 as printed, p < 0.05 vs. Control
# Procedure: The ability of a number of adenosine kinase inhibitors to improve the recovery of post-ischemic function was examined in an isolated guinea pig heart model.
# Isolated guinea pig hearts were cannulated via the ascending aorta and-attached to a perfusion apparatus according to the method of Langendorff. The hearts were perfused at a constant pressure of 60 cm of H2 O with a modified Krebs-Hanseleit buffer (pH 7.4) at 37° C. Left ventricular developed pressures (LVDP) were monitored continuously using a latex balloon attached to a pressure transducer. Coronary flows were measured gravimetrically by timed collection of pulmonary effluent. Following equilibration of the hearts for a period of 30 minutes, the hearts were subjected to 45 minutes of low flow ischemia, by reducing the perfusion pressure to 10 cm of H2 O, and then reperfused for 30 minutes by restoring the pressure to its original level (60 cm of H2 O). The adenosine kinase inhibitors BP-1-238, GP-1-515 and GP1-547 were added to the perfusion buffer at the final concentrations specified.
# [7] = test system: canine coronary thrombosis / cyclic flow reductions; assay: Canine model of platelet-induced coronary thrombosis (Folts; cyclic flow reductions); format: in vivo, dog
# Procedure: GP-1-515 was tested in a canine model of platelet-induced coronary thrombosis (Folts, J., Circulation, 1991, 83[Suppl. IV]:IV-3-IV-14). In this model, platelets cyclically aggregate and embolize causing cyclic flow reductions (CFRs) that are quantitated by the frequency and the change in coronary blood flow from low point to peak with each cycle.
# [8] = test system: rat cardiomyocytes; conditions: cited from earlier work
# [9] = test system: cardiac adenosine kinase; conditions: systemic or, in some cases, oral administration
# [10] = test system: isolated guinea pig hearts; conditions: absence of ADA inhibition; cited from earlier work
# [11] = test system: isolated rat hearts; conditions: normoxic, hypoxic, anoxic or ischemic conditions; alone; cited from earlier work
# [12] = test system: dog hearts; conditions: cited from earlier work
structure (smiles),measurement,setting,value
"C[C@H]1O[C@@H](n2cc(I)c3c(N)ncnc32)[C@H](O)[C@@H]1O [GP-1-456, 5'-deoxy-5-iodotubercidin, reference compound]",inhibition of PTZ induced seizures,"[1]; IP 1, 5 and 10 mg/kg",dose-dependent inhibition
same,reversal of inhibition of PTZ induced seizures,[1]; IP […] with theophylline 34 mg/kg or 8-sulfophenyltheophylline 70 mg/kg,reversal of this inhibition by the central adenosine receptor antagonist theophylline but not the peripheral antagonist 8-sulfophenyltheophylline
same,attenuation of chemical and electroshock induced seizures,[1],potent effects
same,oral anticonvulsant activity,[1],exhibit oral anticonvulsant activity
same,flaccidity and locomotor activity,[2],pronounced general flaccidity and much-reduced spontaneous locomotor activity
same,hypothermia,[2],cause hypothermia
same,inhibition of neutrophil adhesion to endothelial cells,[3],inhibit neutrophil adhesion to endothelial cells; also recorded: dose-dependent inhibition
same,reversal of inhibition of neutrophil adhesion by adenosine deaminase,[3],reversed by adenosine deaminase treatment; also recorded: reversal of these inhibitions
NC[C@H]1O[C@@H](n2nc(Br)c3c(N)ncnc32)[C@H](O)[C@@H]1O [GP-1-515],decline in function / wall thickening with pacing-induced ischemia,[4],attenuates the decline in wall thickening; also recorded: attenuated the decline in function
same,inhibition of contraction in the isolated ileum,[5],Inhibition of contraction; also recorded: attenuate contraction; also recorded: dose-dependent inhibition
same,reversal of inhibition of contraction,[5],reversal by both 8SPT and ADA; also recorded: reversal of these inhibitions
same,Preischemic Flow,[6],6.5 ± 0.3 mL/min/g
same,Functional Recovery,[6],79.0 ± 3.4 % preischemic LVDP
same,animals in which CFRs were abolished,"[7]; Folts model, dogs",3 of 8 and 3 out of 8
same,frequency and change in flow of CFRs where not abolished,"[7]; dog, in vivo",reduced both the frequency and the change in flow
CNc1ncnc2c1ncn2[C@@H]1O[C@H](CN)[C@@H](O)[C@H]1O [GP-1-272],inhibition of neutrophil adhesion to endothelial cells,[3],inhibit neutrophil adhesion to endothelial cells; also recorded: dose-dependent inhibition
same,reversal of inhibition of neutrophil adhesion by adenosine deaminase,[3],reversed by adenosine deaminase treatment; also recorded: reversal of these inhibitions
OC[C@H]1O[C@@H](n2cnc3c2N=CNC[C@H]3O)C[C@@H]1O [2'-deoxycoformycin],effect on adenosine release,[8]; inhibition of adenosine deaminase alone,no effect on adenosine release
NC[C@H]1O[C@@H](n2nc(I)c3c(N)ncnc32)[C@H](O)[C@@H]1O [GP-1-547],inhibition of contraction in the isolated ileum,[5],Inhibition of contraction; also recorded: attenuate contraction; also recorded: dose-dependent inhibition
same,reversal of inhibition of contraction,[5],reversal by both 8SPT and ADA; also recorded: reversal of these inhibitions
same,Preischemic Flow,[6],6.2 ± 0.3 mL/min/g
same,Functional Recovery,[6],79.0 ± 3.1 % preischemic LVDP
"C[C@H]1O[C@@H](n2nc(I)c3cncnc32)[C@H](O)[C@@H]1O [GP-1-560, 3-iodo-1-(5'-deoxy-B-D-ribofuranosyl)pyrazolo[3,4-d]pyrimidine]",attenuation of chemical and electroshock induced seizures,[1],potent effects
same,Latency To First Seizure,[1]; oral 30 mg/kg,4.5 min
same,Percent Seizure,[1]; oral 30 mg/kg,71%
same,Seizure Score,[1]; oral 30 mg/kg,0.71 ± 0.5
same,Percent Seizure,[1]; oral 50 mg/kg,43%
same,Seizure Score,[1]; oral 50 mg/kg,1.0 ± 0.9
same,Latency To First Seizure,"[1]; oral 50 mg/kg, p < 0.05 vs. Control",7.0 min
same,oral anticonvulsant activity,[1],exhibit oral anticonvulsant activity
"NC[C@H]1O[C@@H](n2cnc3c(N)ncnc32)[C@H](O)[C@@H]1O [GP-1-238, 5'-amino-5'-deoxyadenosine]",increase in adenosine release,[8]; together with ADA inhibition,6 fold
same,inhibition of cardiac adenosine kinase in vivo,[9],completely inhibited adenosine kinase in vivo
same,increase of adenosine release without ADA inhibition,[10],not apparent in the absence of ADA inhibition
Nc1ncnc2c1c(I)cn2[C@@H]1O[C@H](CO)[C@@H](O)[C@H]1O [5-iodotubercidin],flaccidity and locomotor activity,[2],pronounced general flaccidity and much-reduced spontaneous locomotor activity
same,hypothermia,[2],cause hypothermia
same,perfusate adenosine concentration,[11],no increase in perfusate adenosine concentration
same,effect in ischemia and reperfusion,[12],inconsistent effects
